# Several values for one entry are separate records, joined by “and”; a condition that tells them apart may be missing. Identical values can stand only once. Entries after “also recorded” stand apart in the source; their conditions may differ. Like-named read-outs stand apart in the source and are kept apart here.
# Assay: Phase 1b MAD plasma pharmacokinetics, non-compartmental analysis
# Assay type: in vivo, human
# Description: Methods: All study procedures were approved by the IRB, and informed consent was obtained. Three cohorts of volunteers 45-80 years of age with well-controlled comorbidities (NOAD) and one cohort of AD patients diagnosed with cognitive impairment consistent with prodromal AD per International Working Group criteria or mild AD per National Institute on Aging—Alzheimer's Association criteria (n=6 active, 2 placebo per cohort) were enrolled. Participants were admitted to the study site for the duration of the dosing and returned 7-12 days after the last dose for a safety visit. Participants received NTRX-07 (10, 30, or 90 mg) or a placebo in a double-blinded randomization orally once daily for seven days. Subjects were assessed for changes in vital signs, including maneuvers to induce lightheadedness, electrocardiograms, 24-hour electroencephalograms (EEG), and safety laboratory studies. The second cohort returned and received a single repeat dose after a standard high-fat meal. The AD cohort also underwent cognitive testing and had blood samples for biomarkers drawn. Subjects had PK sampling done after the first and final dose of the study drug. An independent safety review committee conducted a blinded safety review of adverse events and plasma levels between each cohort.
# All subjects had PK sampling done after the first and final dose of the study drug.
# Raw bioanalytical data were received from Nuvisan following analysis of plasma samples from each of four cohorts. PK parameters were calculated by noncompartmental analysis using standard equations. Specifically, area under the plasma concentration versus time curve (AUC) was calculated using the trapezoid rule. Maximal plasma concentration (Cmax) and time of maximal plasma concentration (Tmax) were taken directly from the data. Clearance divided by bioavailability (Cl/F) was calculated as the dose divided by the AUC. Apparent volume of distribution over bioavailability (Vd/F) was calculated as dose divided by Cmax.
# With oral administration of the dose every 24 hours for 7 days, blood samples were taken over a 24-hour interval on Days 1 and 7 and before and after dosing on Day 3.
# Raw bioanalytical data were received from Nuvisan on Oct. 27, 2022. […] Specifically, area under the plasma concentration versus time curve (AUC) was calculated using the trapezoid rule. Maximal plasma concentration (Cmax) and time of maximal plasma concentration (Tmax) were taken directly from the data. Clearance divided by bioavailability (Cl/F) was calculated as the dose divided by the AUC. Apparent volume of distribution over bioavailability (Vd/F) was calculated as dose divided by Cmax.
# Raw bioanalytical data were received from Nuvisan on Nov. 24, 2022. […] Specifically, area under the plasma concentration versus time curve (AUC) was calculated using the trapezoid rule. Maximal plasma concentration (Cmax) and time of maximal plasma concentration (Tmax) were taken directly from the data. Clearance divided by bioavailability (Cl/F) was calculated as the dose divided by the AUC. Apparent volume of distribution over bioavailability (Vd/F) was calculated as dose divided by Cmax.
# Raw bioanalytical data were received from Nuvisan on Dec. 19, 2022. […] Specifically, area under the plasma concentration versus time curve (AUC) was calculated using the trapezoid rule. Maximal plasma concentration (Cmax) and time of maximal plasma concentration (Tmax) were taken directly from the data. Clearance divided by bioavailability (Cl/F) was calculated as the dose divided by the AUC. Apparent volume of distribution over bioavailability (Vd/F) was calculated as dose divided by Cmax.
# Raw bioanalytical data were received from Nuvisan on Jun. 30, 2023. […] Specifically, area under the plasma concentration versus time curve (AUC) was calculated using the trapezoid rule. Maximal plasma concentration (Cmax) and time of maximal plasma concentration (Tmax) were taken directly from the data. […]
# [1] = Table 17: Cohort D (AD), 90 mg QD oral, Day 7, individual subjects
# [2] = Table 19 (interim): Cohort A, 40 mg SDD (10 mg NTRX-07) QD oral, Day 1, individual subjects
# [3] = Table 20 (interim): Cohort A, 40 mg SDD (10 mg NTRX-07) QD oral, Day 7, individual subjects
# [4] = Table 24 (interim): Cohort B, 120 mg SDD (30 mg NTRX-07) QD oral, Day 1, individual subjects
# [5] = Table 25 (interim): Cohort B, 120 mg SDD (30 mg NTRX-07) QD oral, Day 7, individual subjects
# [6] = Table 29 (interim): Cohort C, 360 mg SDD (90 mg NTRX-07) QD oral, Day 1, individual subjects
# [7] = Table 30 (interim): Cohort C, 360 mg SDD (90 mg NTRX-07) QD oral, Day 7, individual subjects
# [8] = Table 34 (interim): Cohort D (AD), 360 mg SDD (90 mg NTRX-07) QD oral, Day 1, individual subjects
# [9] = Table 35 (interim): Cohort D (AD), 360 mg SDD (90 mg NTRX-07) QD oral, Day 7, individual subjects
compound,measurement,setting,value
"CC1(Cc2ccccc2)COc2cc(C(=O)N3CCCCC3)ccc21 (centres unmarked) [NTRX-07, 3-benzyl-3-methyl-2,3-dihydrobenzofuran-6-carboxylic acid-piperidine amide]",Cmax,[1],250 ng/mL and 262 ng/mL and 246 ng/mL and 176 ng/mL and 221 ng/mL
same,Tmax,[1],1.5 h (3×) and 1 h
same,Cl/F,"Table 17: Cohort D (AD), 90 mg QD oral, Day 7, mean ± S.D.",117 ± 28 L/h
same,AUC24 h,[2],35.7 ng·h/mL and 73.8 ng·h/mL and 151.0 ng·h/mL and 46.3 ng·h/mL and 154.2 ng·h/mL and 96.8 ng·h/mL
same,Cl/F,[2],1120 L/h and 542 L/h and 265 L/h and 864 L/h and 259 L/h and 413 L/h
same,Cmax,[2],24.2 ng/mL and 45.0 ng/mL and 36.7 ng/mL and 18.2 ng/mL and 52.6 ng/mL and 37.0 ng/mL
same,Tmax,[2],1.0 h
same,Cl/F,"Table 19 (interim): Cohort A, 40 mg SDD (10 mg NTRX-07) QD oral, Day 1, mean ± S.D.",577 ± 347 L/h
same,AUC24 h,[3],49.5 ng·h/mL and 92.8 ng·h/mL and 223.8 ng·h/mL and 41.5 ng·h/mL and 91.9 ng·h/mL and 67.0 ng·h/mL
same,Cl/F,[3],808 L/h and 431 L/h and 179 L/h and 963 L/h and 435 L/h and 597 L/h
same,Cmax,[3],29.6 ng/mL and 39.4 ng/mL and 63.6 ng/mL and 19.6 ng/mL and 46.7 ng/mL and 27.1 ng/mL
same,Tmax,[3],1.0 h
same,Cl/F,"Table 20 (interim): Cohort A, 40 mg SDD (10 mg NTRX-07) QD oral, Day 7, mean ± S.D.",569 ± 284 L/h
same,AUC24 h,[4],152.3 ng·h/mL and 462.4 ng·h/mL and 716.3 ng·h/mL and 369.3 ng·h/mL and 229.9 ng·h/mL and 97.4 ng·h/mL and 236.4 ng·h/mL
same,Cl/F,[4],788 L/h and 260 L/h and 168 L/h and 325 L/h and 522 L/h and 1231 L/h and 508 L/h
same,Cmax,[4],60.8 ng/mL and 93.9 ng/mL and 209 ng/mL and 127 ng/mL and 153 ng/mL and 47.9 ng/mL and 70.6 ng/mL
same,Tmax,[4],1 h (3×) and 2 h
same,Cl/F,"Table 24 (interim): Cohort B, 120 mg SDD (30 mg NTRX-07) QD oral, Day 1, mean ± S.D.",549 ± 401 L/h
same,AUC24 h,[5],118.0 ng·h/mL and 582.3 ng·h/mL and 286.5 ng·h/mL and 241.7 ng·h/mL and 67.1 ng·h/mL and 200.4 ng·h/mL
same,Cl/F,[5],1017 L/h and 206 L/h and 419 L/h
same,Cmax,[5],92.9 ng/mL and 236 ng/mL and 127 ng/mL
same,Tmax,[5],1 h
same,AUC24 h,[6],1629 ng·h/mL and 857 ng·h/mL and 925 ng·h/mL and 657 ng·h/mL and 1730 ng·h/mL and 1949 ng·h/mL
same,Tmax,[6],1.5 h (2×) and 8 h and 1 h and 3 h
same,AUC24 h,[7],783 ng·h/mL and 604 ng·h/mL and 354 ng·h/mL and 516 ng·h/mL and 876 ng·h/mL and 1349 ng·h/mL
same,Tmax,[7],2 h and 1.5 h and 3 h
same,AUC24 h,[8],1004 ng·h/mL and 1255 ng·h/mL and 2727 ng·h/mL and 1349 ng·h/mL and 1580 ng·h/mL and 1422 ng·h/mL
same,Tmax,[8],2 h and 1 h (2×) and 1.5 h
same,AUC24 h,[9],1854 ng·h/mL and 1659 ng·h/mL and 1603 ng·h/mL and 1328 ng·h/mL and 1130 ng·h/mL
same,Tmax,[9],1.5 h (3×) and 1 h
same,PK / plasma levels AD vs Non-AD participants,high dose (90 mg),similar; also recorded: comparable
same,Cmax,"human, plasma, oral, 90 mg, high dose (90 mg), AD participants, read-out: Cmax",477 ng/mL
same,AUC(0-t),"human, plasma, oral, 90 mg, high dose (90 mg), AD participants, read-out: average of AUC0-24 h",1560 ng·h/mL
same,Cmax,"human, plasma, oral, 90 mg, high dose (90 mg), Non-AD participants, read-out: Cmax",439 ng/mL
same,AUC(0-t),"human, plasma, oral, 90 mg, high dose (90 mg), Non-AD participants, read-out: average of AUC0-24 h",1290 ng·h/mL
same,AUC(0-t),"human, plasma, po, 10 mg, Cohort A healthy, 10 mg QD oral, Day 1, mean ± SD, read-out: Average of AUC24 h",78.8 ± 43.7 ng·h/mL
same,Cmax,"human, plasma, po, 10 mg, Cohort A healthy, 10 mg QD oral, Day 1, mean ± SD, read-out: Average of Cmax",35.6 ± 12.8 ng/mL
same,Tmax,"human, plasma, po, 10 mg, Cohort A healthy, 10 mg QD oral, Day 1, mean ± SD, read-out: Average of Tmax",0.7 ± 0.3 h
same,Vd/F,"human, plasma, po, 10 mg, Cohort A healthy, 10 mg QD oral, Day 1, mean ± SD, read-out: Average of Vd/F",1280 ± 544 L
same,AUC(0-t),"human, plasma, po, 10 mg, Cohort A healthy, 10 mg QD oral, Day 7, mean ± SD, read-out: Average of AUC24 h",90.4 ± 67.9 ng·h/mL
same,Cmax,"human, plasma, po, 10 mg, Cohort A healthy, 10 mg QD oral, Day 7, mean ± SD, read-out: Average of Cmax",37.7 ± 15.9 ng/mL
same,Tmax,"human, plasma, po, 10 mg, Cohort A healthy, 10 mg QD oral, Day 7, mean ± SD, read-out: Average of Tmax",0.8 ± 0.3 h
same,Vd/F,"human, plasma, po, 10 mg, Cohort A healthy, 10 mg QD oral, Day 7, mean ± SD, read-out: Average of Vd/F",307 ± 126 L
same,Tmax,"human, plasma, po, 10 mg, Table 9: Cohort A, 10 mg QD oral, Day 1, individual subjects, read-out: Tmax",0.5 h
same,AUC(0-t),"human, plasma, po, 10 mg, Table 9: Cohort A, 10 mg QD oral, Day 1, mean ± S.D., read-out: AUClast",78.8 ± 43.7 ng·h/mL
same,Cmax,"human, plasma, po, 10 mg, Table 9: Cohort A, 10 mg QD oral, Day 1, mean ± S.D., read-out: Cmax",35.6 ± 12.8 ng/mL
same,Tmax,"human, plasma, po, 10 mg, Table 9: Cohort A, 10 mg QD oral, Day 1, mean ± S.D., read-out: Tmax",0.7 ± 0.3 h
same,Vd/F,"human, plasma, po, 10 mg, Table 9: Cohort A, 10 mg QD oral, Day 1, mean ± S.D., read-out: Vd/F",1280 ± 544 L
same,Tmax,"human, plasma, po, 10 mg, Table 10: Cohort A, 10 mg QD oral, Day 7, individual subjects, read-out: Tmax",0.5 h
same,AUC over 24 h (AUC0-24),"human, plasma, po, 10 mg, Table 10: Cohort A, 10 mg QD oral, Day 7, mean ± S.D.",90.4 ± 67.9 ng·h/mL
